“Also recorded” adds a separate entry of the source.
How the values were obtained:
dry eye disease model = assay: Murine experimental dry eye (DED) model, ICES; type: in vivo, mouse
From the text: FIG. 12. Corneal Florescein Staining with JE-treated Experimental Dry Eye. Mean corneal staining score with JE/control topical treatment (4 times/day) starting 3 weeks after housing in ICES. Group 1: Normal control (non DED); group 2: Dry Eye treated with JE (JE+DED); Group 3: Dry Eye treated with vehicle (control DED). P value: *: <0.05. One of two experiments is shown.
FIG. 25. Pro-Inflammatory IL-6 Cytokine Expression in Corneal Tissues Isolated from Control, Vehicle Control, and Treatment Groups. Corneal samples from the three groups were isolated, stabilized in RNA later, and stored at-80. Corneal samples were homogenized, and RNA was purified using RNAeasy mini-kit. A total of 0.5 μg-1 μg RNA was yielded. RT-qPCR was performed. Values were normalized to GAPDH control, and fold induction was measured as 2-ΔΔCT. One of two experiments is shown.
We further tested if JE reduced corneal tissue damage in a murine DED model. Thus, normal C57BL/6J mice were maintained in relative humidity 60% to 80%, no airflow at 21-23° C. as normal control (Group 1). The experimental dry eye was induced by using an Intelligently Controlled Environmental System (ICES). Dry eye mice (Group 2 and Group 3) were housed in ICES with relative humidity at 13+4%, airflow of 2.2+0.2 m/s, and temperature of 21-23° for 3 weeks. Group 2 mice were treated with 10 μL JE at 50 μM 0.35% (v/v) DMSO in PBS and group 3 (vehicle control) were treated with 10 μL of 0.35% (v/v) DMSO in PBS, 4 time/day topically for 14 days. Corneal fluorescein staining was evaluated at week 0, 3 and 5. The stained area was assessed according to a standardized grading system ranging from 0 to 4, with the corneal surface divided into five regions. Then the total scores from the five regions were analyzed. […] The data strongly support that JE (3,3-Difluoro-5-alpha-androstan-17-beta-yl acetate) can be used as therapeutic agent for non-infectious inflammatory diseases. […]
This pattern of staining points to significant corneal damage and inflammation. […] Next, the IL-6 cytokine expression was measured in corneal samples using RT-qPCR. […]

BMDMs = assay: JE on TNF-α and IL-6 secretion by BMDMs upon LPS and TLR agonists; type: cell-based, mouse
Protocol: (§1) FIG. 16. The Effect of JE on TNF-α Secretion by BMDMs in Response to Stimulation by Different Concentrations of LPS. BMDMs were isolated and cultured, as mentioned before. Macrophages were incubated overnight with JE at a concentration of 50 μM at 37° C., 5% CO2. The next day, they were stimulated with two-fold dilutions of LPS at a starting concentration of 5 ng/ml for 3 hours. Supernatants were collected, and TNF-α was measured using ELISA. Data are presented as mean±SEM (n=6). *p<0.05; **p<0.01; ***p<0.001. One of two experiments is shown.
as §1, with “17.” for “16.”, “IL-6” for “TNF-α”, “cultured” for “cultured,”, “described above.” for “mentioned before.”
FIG. 18. The Effect of JE on TNF-α Secretion by BMDMs in Response to Stimulation by TLR Agonists. BMDMs were isolated and cultured as described above. Macrophages were incubated overnight with JE at a concentration of 50 μM at 37° C., 5% CO2. The following day, they were stimulated with 1 μg/ml of FLG-ST, […] of ODN, 50 μg/ml of Poly: IC, 3 μg/ml of Imiquimod, 3 μg/ml and 1.5 μg/ml of PAM-3SCk, 1 μg/ml of FSL-1 for 3 hours. Supernatants were collected, and TNF-α was measured using ELISA. Data are presented as mean±SEM (n=6). *p<0.05; **p<0.01; ***p<0.001. One of three experiments is shown.
Murine macrophages, both RAW 264.7 macrophages and bone marrow-derived macrophages (BMDMs), were seeded and then pretreated overnight with the metabolite JE. The following day, the macrophages were stimulated with one of TLR agonists, including LPS, FLA-ST, ODN, Pam3SCK4, Poly: IC LMW, FSL, and Imiquimod for 3 hours, then the production of TNF-α, and IL-6 in the culture supernatants was measured by ELISA.
Therefore, I stimulated them with two-fold dilution of the concentration I used to stimulate RAW 264.7. […] On the other hand, JE could reduce IL-6 secretion by BMDMs at 5 ng/ml of LPS as depicted in FIG. 17.
Similar to treatment of RAW 264.7 macrophages with TLR agonists, I pretreated BMDMs with JE then stimulated them with FLG, ODN, PIC, Imiquimod, PAM-3SCK, and FSL-1. […] After 3 hours, Supernatants were collected, TNF-α and IL-6 were quantified by ELISA.

CC(=O)O[C@@H]1CC[C@H]2[C@H]3CC[C@H]4CC(F)(F)CC[C@]4(C)[C@H]3CC[C@]12C [JE, 3,3-Difluoro-5-alpha-androstan-17-beta-yl acetate]
corneal fluorescein staining score (dry eye disease model; 10 μL JE 50 μM topically 4 times/day for 14 days after 3 weeks in ICES, vs vehicle control, day 35): significantly reduced
IL-6 expression in corneal samples (RT-qPCR) (dry eye disease model; JE eye drops four times a day for 14 days): decreased; also recorded: did not return to the baseline
surface area of corneal damage (dry eye disease model; JE eye drops four times a day for 14 days, relative to vehicle control): decrease
TNF-α secretion (BMDMs; JE 50 μM overnight, LPS 0.6 ng/ml 3 hours): Significant inhibition
TNF-α secretion (BMDMs; JE 50 μM overnight, LPS 1.25 ng/ml 3 hours): Significant inhibition
IL-6 secretion (BMDMs; JE 50 μM overnight, LPS 5 ng/ml 3 hours): could reduce
TNF-α secretion upon stimulation with TLR agonists (BMDMs; JE 50 μM overnight, FLG, ODN, PIC, Imiquimod, PAM-3SCK, FSL-1, 3 hours): decreased
IL-6 secretion upon stimulation with TLR agonists (BMDMs; JE 50 μM overnight, TLR agonists 3 hours): decreased
IL-6 production (BMDMs; JE, LPS 10 ng/ml): failed to decrease
TNF-α production (BMDMs; JE, LPS 10 ng/ml): failed to decrease
TNF-α production (BMDMs; ODN and PAM-3SCK, previous experiment before two-fold dilutions): did not significantly reduce

From patent US20250000874A1, “BACTERIAL METABOLITES AND THEIR USE IN REDUCING INFLAMMATION” (LOYOLA UNIVERSITY OF CHICAGO, priority 2023, published 2025)
